Numbers after ± are expanded uncertainties.
Assay: wn = mass fraction of the nth substance listed
Settings: Liquid, Pycnometric method, w2 = 0.5111

FC(F)C(F)(F)F [pentafluoroethane] + FCF
Settings	mass density [kg/m3]
298.15 K, 28366 kPa	1185.5 ± 1.9
299.15 K, 7469 kPa	1097.4 ± 1.8
299.15 K, 7499 kPa	1097.4 ± 1.8
299.15 K, 7541 kPa	1097.4 ± 1.8
299.15 K, 29176 kPa	1185.2 ± 1.9
299.15 K, 29179 kPa	1185.2 ± 1.9
299.15 K, 29186 kPa	1185.4 ± 1.9
300.15 K, 8097 kPa	1097.2 ± 1.8
300.15 K, 8124 kPa	1097.2 ± 1.8
300.15 K, 8166 kPa	1097.2 ± 1.8
300.15 K, 29998 kPa	1185.1 ± 1.9
300.15 K, 29999 kPa	1185.1 ± 1.9
300.15 K, 30003 kPa	1185.2 ± 1.9
301.15 K, 8725 kPa	1097.1 ± 1.8
301.15 K, 8750 kPa	1097.1 ± 1.8
301.15 K, 8791 kPa	1097.1 ± 1.8
302.15 K, 9353 kPa	1096.9 ± 1.8
302.15 K, 9377 kPa	1096.9 ± 1.8
302.15 K, 9417 kPa	1096.9 ± 1.8
303.15 K, 9980 kPa	1096.8 ± 1.8
303.15 K, 10003 kPa	1096.8 ± 1.8
303.15 K, 10042 kPa	1096.8 ± 1.8
304.15 K, 10607 kPa	1096.6 ± 1.8
304.15 K, 10629 kPa	1096.6 ± 1.8
304.15 K, 10667 kPa	1096.7 ± 1.8
305.15 K, 11234 kPa	1096.5 ± 1.8
305.15 K, 11256 kPa	1096.5 ± 1.8
305.15 K, 11292 kPa	1096.5 ± 1.8
306.15 K, 11861 kPa	1096.4 ± 1.8
306.15 K, 11881 kPa	1096.4 ± 1.8
306.15 K, 11917 kPa	1096.4 ± 1.8
307.15 K, 12487 kPa	1096.2 ± 1.8
307.15 K, 12507 kPa	1096.2 ± 1.8
307.15 K, 12541 kPa	1096.2 ± 1.8
308.15 K, 13114 kPa	1096.1 ± 1.8
308.15 K, 13133 kPa	1096.1 ± 1.8
308.15 K, 13165 kPa	1096.1 ± 1.8
309.15 K, 13740 kPa	1095.9 ± 1.8
309.15 K, 13758 kPa	1095.9 ± 1.8
309.15 K, 13790 kPa	1095.9 ± 1.8
310.15 K, 14367 kPa	1095.8 ± 1.8
310.15 K, 14384 kPa	1095.8 ± 1.8
310.15 K, 14414 kPa	1095.8 ± 1.8
311.15 K, 14992 kPa	1095.6 ± 1.8
311.15 K, 15009 kPa	1095.7 ± 1.8
311.15 K, 15038 kPa	1095.7 ± 1.8
312.15 K, 15618 kPa	1095.5 ± 1.8
312.15 K, 15634 kPa	1095.5 ± 1.8
312.15 K, 15662 kPa	1095.5 ± 1.8
313.15 K, 16243 kPa	1095.4 ± 1.8
313.15 K, 16259 kPa	1095.4 ± 1.8
313.15 K, 16286 kPa	1095.4 ± 1.8
314.15 K, 16869 kPa	1095.2 ± 1.8
314.15 K, 16883 kPa	1095.2 ± 1.8
314.15 K, 16910 kPa	1095.3 ± 1.8
315.15 K, 17493 kPa	1095.1 ± 1.8
315.15 K, 17507 kPa	1095.1 ± 1.8
315.15 K, 17534 kPa	1095.1 ± 1.8
316.15 K, 18118 kPa	1095 ± 1.8
316.15 K, 18131 kPa	1095 ± 1.8
316.15 K, 18158 kPa	1095 ± 1.8
317.15 K, 18743 kPa	1094.9 ± 1.8
317.15 K, 18755 kPa	1094.9 ± 1.8
317.15 K, 18781 kPa	1094.9 ± 1.8
318.15 K, 19367 kPa	1094.7 ± 1.8
318.15 K, 19379 kPa	1094.7 ± 1.8
318.15 K, 19404 kPa	1094.8 ± 1.8
319.15 K, 19990 kPa	1094.6 ± 1.8
319.15 K, 20003 kPa	1094.6 ± 1.8
319.15 K, 20027 kPa	1094.6 ± 1.8
320.15 K, 20613 kPa	1094.5 ± 1.8
320.15 K, 20627 kPa	1094.5 ± 1.8
320.15 K, 20649 kPa	1094.5 ± 1.8
321.15 K, 21236 kPa	1094.4 ± 1.8
321.15 K, 21250 kPa	1094.4 ± 1.8
321.15 K, 21272 kPa	1094.4 ± 1.8
322.15 K, 21858 kPa	1094.2 ± 1.8
322.15 K, 21873 kPa	1094.3 ± 1.8
322.15 K, 21894 kPa	1094.3 ± 1.8
323.15 K, 22480 kPa	1094.1 ± 1.8
323.15 K, 22495 kPa	1094.1 ± 1.8
323.15 K, 22516 kPa	1094.2 ± 1.8
324.15 K, 23103 kPa	1094 ± 1.8
324.15 K, 23117 kPa	1094 ± 1.8
324.15 K, 23137 kPa	1094 ± 1.8
325.15 K, 23725 kPa	1093.9 ± 1.8
325.15 K, 23738 kPa	1093.9 ± 1.8
325.15 K, 23758 kPa	1093.9 ± 1.8
326.15 K, 24347 kPa	1093.8 ± 1.8
326.15 K, 24361 kPa	1093.8 ± 1.8
326.15 K, 24379 kPa	1093.8 ± 1.8
327.15 K, 24970 kPa	1093.7 ± 1.8
327.15 K, 24981 kPa	1093.7 ± 1.8
327.15 K, 25000 kPa	1093.7 ± 1.8
328.15 K, 25590 kPa	1093.6 ± 1.8
328.15 K, 25601 kPa	1093.6 ± 1.8
328.15 K, 25620 kPa	1093.6 ± 1.8
